In US20100216802A1, “PTERIDINE DERIVATIVES AS POLO-LIKE KINASE INHIBITORS USEFUL IN THE TREATMENT OF CANCER” (CHROMA THERAPEUTICS LTD., priority 2006, published 2010):
pIC50: −log10 of the molar value.

target: T1, PLK1 (Homo sapiens, UniProt P53350); experiment: PLK1 enzyme assay (Z'-LYTE, Invitrogen); assay type: biochemical; conditions: ATP at or close to Km; read-out: Inhibitor Activity vs PLK1
T1 construct: purchased Invitrogen (Paisley, UK)
Method: The ability of compounds to inhibit PLK-1 kinase activity was measured in an assay performed by Invitrogen (Paisley, UK). The Z′-LYTE™ biochemical assay employs a fluorescence-based, coupled-enzyme format and is based on the differential sensitivity of phosphorylated and non-phosphorylated peptides to proteolytic cleavage. The peptide substrate is labelled with two fluorophores—one at each end—that make up a FRET pair. In the primary reaction, the kinase transfers the gamma-phosphate of ATP to a single serine or threonine residue in a synthetic FRET-peptide. In the secondary reaction, a site-specific protease recognizes and cleaves non-phosphorylated FRET-peptides. Phosphorylation of FRET-peptides suppresses cleavage by the Development Reagent. Cleavage disrupts FRET between the donor (i.e., coumarin) and acceptor (i.e., fluorescein) fluorophores on the FRET-peptide, whereas uncleaved, phosphorylated FRET-peptides maintain FRET. A […] method, which calculates the ratio (the Emission Ratio) of donor emission to acceptor emission after excitation of the donor fluorophore at 400 nm, is used to quantitate reaction progress.
The assay is performed at an ATP concentration at, or close to, the Km. After the 60 minute Kinase Reaction incubation at RT, 5 μL of a 1:8 dilution of Development Reagent is added. The assay plate is incubated for a further 60 minutes at RT and read on a fluorescence plate reader.
Duplicate data points are generated from a ⅓ log dilution series of a stock solution of test compound in DMSO. Nine dilutions steps are made from a top concentration of 10 μM, and a ‘no compound’ blank is included. Data is collected and analysed using XLfit software from IDBS.

T1 sequence (P53350 whole entry): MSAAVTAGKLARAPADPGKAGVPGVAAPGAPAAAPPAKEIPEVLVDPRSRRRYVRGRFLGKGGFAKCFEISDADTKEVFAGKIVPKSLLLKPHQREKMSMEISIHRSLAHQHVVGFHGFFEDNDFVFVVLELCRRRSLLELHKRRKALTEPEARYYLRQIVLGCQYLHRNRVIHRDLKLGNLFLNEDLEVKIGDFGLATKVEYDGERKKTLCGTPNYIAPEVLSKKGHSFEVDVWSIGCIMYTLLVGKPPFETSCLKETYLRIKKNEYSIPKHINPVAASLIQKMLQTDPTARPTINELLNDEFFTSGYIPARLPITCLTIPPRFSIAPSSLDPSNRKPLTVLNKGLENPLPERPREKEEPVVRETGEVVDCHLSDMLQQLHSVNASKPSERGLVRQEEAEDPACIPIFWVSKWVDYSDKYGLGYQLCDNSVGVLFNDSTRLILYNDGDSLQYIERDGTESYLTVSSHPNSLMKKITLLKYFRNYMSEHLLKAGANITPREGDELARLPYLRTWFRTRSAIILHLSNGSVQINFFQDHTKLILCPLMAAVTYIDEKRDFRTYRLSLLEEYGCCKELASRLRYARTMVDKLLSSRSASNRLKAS

| Structure (SMILES) | pIC50 |
| --- | --- |
| CC[C@@H]1C(=O)N(C)c2cnc(Nc3ccc(OCC[C@H](N)C(=O)O)cc3OC)nc2N1C1CCCC1 [Example 37, O-(4-{[(7R)-8-Cyclopentyl-7-ethyl-5-methyl-6-oxo-5,6,7,8-tetrahydropteridin-2-yl]amino}-3-methoxyphenyl)-L-homoserine] | > 7.00 |
| CC[C@@H]1C(=O)N(C)c2cnc(Nc3ccc(OCC[C@H](N)C(=O)O)cc3)nc2N1C1CCCC1 [Example 36, O-(4-{[(7R)-8-Cyclopentyl-7-ethyl-5-methyl-6-oxo-5,6,7,8-tetrahydropteridin-2-yl]amino}phenyl)-L-homoserine] | > 7.00 |
| CC[C@@H]1C(=O)N(C)c2cnc(Nc3ccc(C[C@H](N)C(=O)O)cc3)nc2N1C1CCCC1 [Example 34, 4-{[(7R)-8-Cyclopentyl-7-ethyl-5-methyl-6-oxo-5,6,7,8-tetrahydropteridin-2-yl]amino}-L-phenylalanine] | > 7.00 |
| CC[C@@H]1C(=O)N(C)c2cnc(Nc3ccc(C(=O)Nc4ccc(C[C@H](N)C(=O)O)cc4)cc3OC)nc2N1C1CCCC1 [Example 33] | > 7.00 |
| CCC1C(=O)N(C)c2cnc(Nc3ccc(C(=O)NCCC(N)C(=O)O)cc3OC)nc2N1C1CCCC1 [Example 38, (2S)-2-Amino-4-[(4-{[(7R)-8-cyclopentyl-7-ethyl-5-methyl-6-oxo-5,6,7,8-tetrahydropteridin-2-yl]amino}-3-methoxybenzoyl)amino]butananoic acid] | > 7.00 |
| CC[C@@H]1C(=O)N(C)c2cnc(Nc3ccc(C(=O)N[C@@H]4CN[C@H](C(=O)O)C4)cc3OC)nc2N1C1CCCC1 [Example 39, (4S)-4-[(4-{[(7R)-8-Cyclopentyl-7-ethyl-5-methyl-6-oxo-5,6,7,8-tetrahydropteridin-2-yl]amino}-3-methoxybenzoyl)amino]-L-proline] | > 7.00 |
| CC[C@@H]1C(=O)N(C)c2cnc(Nc3ccc(C(=O)NCCCC[C@H](N)C(=O)O)cc3OC)nc2N1C1CCCC1 [Example 40, N^6-(4-{[(7R)-8-cyclopentyl-7-ethyl-5-methyl-6-oxo-5,6,7,8-tetrahydropteridin-2-yl]amino}-3-methoxybenzoyl)lysine] | > 7.00 |
| CC[C@@H]1C(=O)N(C)c2cnc(Nc3ccc(C(=O)N4CCNC(C(=O)O)C4)cc3OC)nc2N1C1CCCC1 (stereo partly drawn) [Example 52, 4-(4-{[(7R)-8-cyclopentyl-7-ethyl-5-methyl-6-oxo-5,6,7,8-tetrahydropteridin-2-yl]amino}-3-methoxbenzoyl)piperazine-2-carboxylic acid] | > 7.00 |
| CC[C@@H]1C(=O)N(C)c2cnc(Nc3ccc(C(=O)NC4CCN(CC[C@@H](N)C(=O)O)CC4)cc3OC)nc2N1C1CCCC1 [Example 50, (2R)-2-Amino-4-{4-[(4-{[(7R)-8-cyclopentyl-7-ethyl-5-methyl-6-oxo-5,6,7,8-tetra hydropteridin-2-yl]amino}-3-methoxybenzoyl)amino]piperidin-1-yl}butanoic acid] | > 7.00 |
| CC[C@@H]1C(=O)N(C)c2cnc(Nc3ccc(C(=O)NC4CCN(CC[C@H](N)C(=O)O)C4)cc3OC)nc2N1C1CCCC1 (stereo partly drawn) [Example 44, (2S)-2-amino-4-{3-[(4-{[(7R)-8-Cyclopentyl-7-ethyl-5-methyl-6-oxo-5,6,7,8-tetrahydropteridin-2-yl]amino}-3-methoxybenzoyl)amino]pyrrolidin-1-yl}butanoic acid] | > 7.00 |
| CC[C@@H]1C(=O)N(C)c2cnc(Nc3ccc(C(=O)NCCN4CCNC(C(=O)O)C4)cc3OC)nc2N1C1CCCC1 (stereo partly drawn) [Example 43, 4-{2-[(4-{[(7R)-8-Cyclopentyl-7-ethyl-5-methyl-6-oxo-5,6,7,8-tetrahydropteridin-2-yl]amino}-3-methoxybenzoyl)amino]ethyl}piperazine-2-carboxylic acid] | > 7.00 |
| CC[C@@H]1C(=O)N(C)c2cnc(Nc3ccc(C(=O)N4CCNC(C(=O)O)C4)cc3OC)nc2N1C1CCCC1 (stereo partly drawn) [Example 42, 4-(4-{[(7R)-8-Cyclopentyl-7-ethyl-5-methyl-6-oxo-5,6,7,8-tetrahydropteridin-2-yl]amino}-3-methoxybenzoyl)piperazine-2-carboxylic acid] | > 7.00 |
| CC[C@@H]1C(=O)N(C)c2cnc(Nc3ccc(/C=C/C[C@H](N)C(=O)O)cc3)nc2N1C1CCCC1 [Example 35, (2S,4E)-2-Amino-5-(4-{[(7R)-8-cyclopentyl-7-ethyl-5-methyl-6-oxo-5,6,7,8-tetrahydropteridin-2-yl]amino}phenyl)pent-4-enoic acid] | > 7.00 |
| CC[C@@H]1C(=O)N(C)c2cnc(Nc3ccc(C(=O)NC4CCN(CCC[C@@H](N)C(=O)O)CC4)cc3OC)nc2N1C1CCCC1 [Example 47, 5-{4-[(4-{[(7R)-8-Cyclopentyl-7-ethyl-5-methyl-6-oxo-5,6,7,8-tetrahydropteridin-2-yl]amino}-3-methoxybenzoyl)amino]piperidin-1-yl}-D-norvaline] | > 7.00 |
| CC[C@@H]1C(=O)N(C)c2cnc(Nc3ccc(C(=O)NC4CCN(CCC[C@H](N)C(=O)O)CC4)cc3OC)nc2N1C1CCCC1 [Example 46, 5-{4-[(4-{[(7R)-8-Cyclopentyl-7-ethyl-5-methyl-6-oxo-5,6,7,8-tetrahydropteridin-2-yl]amino}-3-methoxybenzoyl)amino]piperidin-1-yl}-L-norvaline] | > 7.00 |
| CC[C@@H]1C(=O)N(C)c2cnc(Nc3ccc(C(=O)NC4CCN(CC[C@H](N)C(=O)O)CC4)cc3C)nc2N1C1CCCC1 [Example 48, (2S)-2-Amino-4-{4-[(4-{[(7R)-8-cyclopentyl-7-ethyl-5-methyl-6-oxo-5,6,7,8-tetra hydropteridin-2-yl]amino}-3-methylbenzoyl)amino]piperidin-1-yl}butanoic acid] | > 7.00 |
| CC[C@@H]1C(=O)N(C)c2cnc(Nc3ccc(C(=O)NC4CCN(CC[C@H](N)C(=O)O[C@@H]5C[C@H](C)CC[C@H]5C(C)C)CC4)cc3OC)nc2N1C1CCCC1 [Example 32] | > 7.00 |
| CC[C@@H]1C(=O)N(C)c2cnc(Nc3ccc(C(=O)NC4CCN(CC[C@H](N)C(=O)O)CC4)cc3F)nc2N1C1CCCC1 [Example 49, (2S)-2-Amino-4-{4-[(4-{[(7R)-8-cyclopentyl-7-ethyl-5-methyl-6-oxo-5,6,7,8-tetra hydropteridin-2-yl]amino}-3-fluorobenzoyl)amino]piperidin-1-yl}butanoic acid] | > 7.00 |
| CC[C@@H]1C(=O)N(C)c2cnc(Nc3ccc(C(=O)NC4C5CN(CC[C@H](N)C(=O)O)CC54)cc3OC)nc2N1C1CCCC1 (stereo partly drawn) [Example 45, (2S)-2-Amino-4-{6-[(4-{[(7R)-8-cyclopentyl-7-ethyl-5-methyl-6-oxo-5,6,7,8-tetrahydropteridin-2-yl]amino}-3-methoxybenzoyl)amino]-3-azabicyclo[3.1.0]hex-3-yl} butanoic acid] | > 7.00 |
| CC[C@@H]1C(=O)N(C)c2cnc(Nc3ccc(C(=O)NC4CCN(CC[C@H](N)C(=O)O)CC4)cc3OC)nc2N1C1CCCC1 [Example 53, (2S)-2-amino-4-{4-[(4-{[(7R)-8-cyclopentyl-7-ethyl-5-methyl-6-oxo-5,6,7,8-tetrahydropteridin-2-yl]amino}-3-methoxybenzoyl)amino]piperidin-1-yl}butanoic acid] | > 7.00 |
| CC[C@@H]1C(=O)N(C)c2cnc(Nc3ccc(C(=O)NCc4ccc(OCC[C@H](N)C(=O)O)cc4)cc3OC)nc2N1C1CCCC1 [Example 41, O-(4-{[(4-{[(7R)-8-Cyclopentyl-7-ethyl-5-methyl-6-oxo-5,6,7,8-tetrahydropteridin-2-yl]amino}-3-methoxybenzoyl)amino]methyl}phenyl)-L-homoserine] | > 7.00 |

same assay, conditions: acid of the ester; read-out: Inhibition of PLK (IC50, nM) acid

| Structure (SMILES) | IC50 |
| --- | --- |
| CC[C@@H]1C(=O)N(C)c2cnc(Nc3ccc(C(=O)NC4CCN(CC[C@H](N)C(=O)O)CC4)cc3OC)nc2N1C1CCCC1 [Example 53, (2S)-2-amino-4-{4-[(4-{[(7R)-8-cyclopentyl-7-ethyl-5-methyl-6-oxo-5,6,7,8-tetrahydropteridin-2-yl]amino}-3-methoxybenzoyl)amino]piperidin-1-yl}butanoic acid] | 6 nM |
